Active and inactive are the calls of the source.
Tests used:
[1] = molecular target: Cytochrome P450 2C19 (Homo sapiens, UniProt P33261); assay: Cytochrome panel assay with activity outcomes. Panel member name: p450-cyp2c19 Compounds with AC50 equal or less than 10 uM are considered active; type: functional; details: read-out: AC50
[2] = molecular target: Cytochrome P450 3A4 (Homo sapiens, UniProt P08684);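 note: CYP3A4 tested as one member of a cytochrome P450 panel screen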
[3] = molecular target: Cytochrome P450 2C9 (Homo sapiens, UniProt P11712)
[4] = molecular target: T1, Cytochrome P450 1A2 (Homo sapiens, UniProt P05177)
T1 sequence (P05177 whole entry): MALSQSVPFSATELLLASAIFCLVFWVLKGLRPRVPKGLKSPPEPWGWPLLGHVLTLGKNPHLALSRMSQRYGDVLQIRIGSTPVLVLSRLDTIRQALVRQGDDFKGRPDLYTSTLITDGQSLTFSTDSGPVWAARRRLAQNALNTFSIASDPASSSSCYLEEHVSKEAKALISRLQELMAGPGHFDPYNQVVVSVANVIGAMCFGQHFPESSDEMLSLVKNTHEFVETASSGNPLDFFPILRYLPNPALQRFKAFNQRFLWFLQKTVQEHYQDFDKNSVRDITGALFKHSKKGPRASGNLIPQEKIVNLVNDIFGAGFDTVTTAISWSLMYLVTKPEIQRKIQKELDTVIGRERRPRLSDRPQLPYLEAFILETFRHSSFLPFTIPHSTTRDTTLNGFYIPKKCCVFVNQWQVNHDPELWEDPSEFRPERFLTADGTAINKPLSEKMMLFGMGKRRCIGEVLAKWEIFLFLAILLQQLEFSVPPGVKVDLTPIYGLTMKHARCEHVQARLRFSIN

[5] = test system: Streptococcus sp. 'group A'; assay: Streptococcus pyogenes SK(-)GAS viability under kanamycin – luminescence, BacTiterGlo, confirmation, counter-screen for streptokinase expression inhibitor project, dose response (AID 1900); type: functional, organism-based
[6] = molecular target: T2, Streptokinase A (Streptococcus pyogenes serotype M1, UniProt P10520); assay: viability-normalized secreted streptokinase activity reduction – plasminogen activation absorbance, OD405, dose response (AID 1914); type: functional, Streptococcus pyogenes M1 GAS;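 note: secreted streptokinase activity via plasminogen activation per viability signal from cell pellet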
T2 sequence (P10520 whole entry): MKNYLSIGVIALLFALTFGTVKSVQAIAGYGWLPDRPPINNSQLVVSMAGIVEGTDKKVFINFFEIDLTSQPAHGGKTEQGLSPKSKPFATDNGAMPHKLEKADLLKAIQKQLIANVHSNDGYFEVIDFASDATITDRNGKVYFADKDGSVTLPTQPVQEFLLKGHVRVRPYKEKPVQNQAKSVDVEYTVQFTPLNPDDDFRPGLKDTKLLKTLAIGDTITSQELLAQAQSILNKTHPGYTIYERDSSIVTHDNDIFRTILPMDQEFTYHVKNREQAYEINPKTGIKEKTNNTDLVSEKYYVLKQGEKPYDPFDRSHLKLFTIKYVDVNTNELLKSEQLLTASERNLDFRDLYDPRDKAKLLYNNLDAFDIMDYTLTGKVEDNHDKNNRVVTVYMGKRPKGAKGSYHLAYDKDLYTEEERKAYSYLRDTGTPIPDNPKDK

[7] = molecular target: Disintegrin and metalloproteinase domain-containing protein 17 (Homo sapiens, UniProt P78536); assay: exosite inhibitors of ADAM17, dose response, biochemical (AID 743260)
[8] = test system: Streptococcus; assay: GAS UMAA2166 growth inhibition – luminescence, BacTiterGlo, counter-screen for streptokinase expression inhibitor project, dose response (AID 1915); type: functional, organism-based;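 note: potency for reduction of bacterial viability or growth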
[9] = molecular target: Genome polyprotein (dengue virus type 2, UniProt P29990); assay: flavivirus cap methylation enzyme inhibition – biochemical, confirmation dose response, primary screen (AID 588689); type: functional
[10] = molecular target: Glucose-6-phosphate 1-dehydrogenase (Homo sapiens, UniProt P11413); assay: inhibition of Homo sapiens G6PD, dose series – biochemical, fluorescence, selectivity assay for P. falciparum G6PD inhibitor project, dose response (AID 504792); type: functional
[11] = Luminescence Cell-Based Dose Confirmation HTS to Identify Inhibitors of Platelet Dense Granule Release. [Related pubchem assays: 1663 (Primary HTS), 1678 (Summary of Project)]; type: functional
[12] = molecular target: Luciferin 4-monooxygenase (Photinus pyralis, UniProt P08659); assay: inhibition of purified Photinus pyralis luciferase – biochemical, luminescence, dose response (AID 1891)
[13] = molecular target: Dual specificity tyrosine-phosphorylation-regulated kinase 1A (Rattus norvegicus, UniProt Q63470); type: biochemical, Homo sapiens
[14] = molecular target: Albumin (Bos taurus, UniProt P02769); assay: Counterscreen for inhibitors of T-cell receptor (TCR)-CD3 interaction: Fluorescence-based biochemical high throughput dose response assay to identify inhibitors of T-cell receptor (TCR)-CD3 interaction using a TAMRA-labeled BSA probe.; type: functional
[15] = test system: Vero; assay: cells; type: functional; details: Chlorocebus sabaeus
[16] = microbe, parasite or virus in culture; type: functional; details: Mycobacterium tuberculosis
[17] = molecular target: T3, Mannose-6-phosphate isomerase (Homo sapiens, UniProt P34949); assay: MPI inhibition at elevated mannose 6-phosphate – biochemical, fluorescence intensity, high mannose 6-phosphate, primary screen (AID 1220)
T3 sequence (P34949 whole entry): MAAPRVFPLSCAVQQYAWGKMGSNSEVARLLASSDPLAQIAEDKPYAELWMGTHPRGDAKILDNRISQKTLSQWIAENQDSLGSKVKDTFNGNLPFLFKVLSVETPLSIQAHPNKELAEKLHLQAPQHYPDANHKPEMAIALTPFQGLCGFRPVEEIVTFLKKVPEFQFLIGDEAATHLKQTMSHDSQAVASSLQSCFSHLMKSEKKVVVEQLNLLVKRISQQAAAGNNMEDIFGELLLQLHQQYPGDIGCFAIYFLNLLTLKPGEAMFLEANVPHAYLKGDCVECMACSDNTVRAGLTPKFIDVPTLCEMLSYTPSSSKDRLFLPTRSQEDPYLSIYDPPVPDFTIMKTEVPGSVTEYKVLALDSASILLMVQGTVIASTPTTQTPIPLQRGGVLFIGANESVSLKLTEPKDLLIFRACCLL

[18] = test system: H4; assay: Luminescence Cell-Based Dose Response HTS to Identify Activators of 5'UTR Stem-Loop Driven Prion Protein mRNA Translation in H4 Neuroglioblastoma Cells. [Related pubchem assays: 1829 (Project Summary), 1814 (Primary HTS)]; type: functional; details: Homo sapiens
[19] = Luminescence Cell-Based Dose Response HTS to Identify Activators of Luciferase Translation or Activity in H4 […] Cells. [Related pubchem assays: 1829 (Project Summary), 1814 (Primary HTS)]; type: functional
[20] = Luminescence Cell-Based Dose Confirmation HTS to Identify Activators of 5'UTR Stem-Loop Driven Alpha-Synuclein mRNA Translation in H4 Neuroglioblastoma Cells. [Related pubchem assays: 1829 (Project Summary), 1814 (Primary HTS)]; type: functional
[21] = molecular target: Fatty acid synthase (Homo sapiens, UniProt P49327); assay: inhibition of human FAS-TE enzyme activity – biochemical, kinetic fluorescence intensity, dose response (AID 624326); type: functional;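 note: rate of fluorescence rise from hydrolysis of a fluorogenic O-methyl fluorescein ester substrate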
[22] = molecular target: FAD-linked sulfhydryl oxidase ALR (Homo sapiens, UniProt P55789); assay: ALR-catalysed DTT oxidation blockers – biochemical, H2O2 detection, luminescence, cherry-pick, dose response (AID 493248)
[23] = molecular target: Cytochrome P450 2D6 (Homo sapiens, UniProt P10635);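 note: CYP2D6 member of a cytochrome P450 panel assay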
[24] = blockade of melanocortin 4 receptor signaling – cell-based, plate reader, cherry pick, counter-screen for LGR2 antagonist project, dose response (AID 743444); type: functional;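 note: transfected HEK 293 cells stimulated with alpha-MSH peptide; potency of inhibitors of the alpha-MSH evoked signal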
[25] = toxicity toward HepG2 liver cells – cell-based, plate reader, cherry-pick, antagonist series, cytotoxicity control, dose response (AID 743416); type: functional
[26] = A549 cell cytotoxicity, dose response, cytotoxicity control, plate reader, cherry-pick, antagonist series (AID 743412); type: functional, cell-based
[27] = blockers of bursicon-stimulated LGR2 cAMP reporter – cell-based, HEK293, CRE-luciferase reporter, cherry pick, set 2, dose response (AID 743343); type: functional;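 note: transfected cells were stimulated with diluted bursicon conditioned medium after compound addition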

Glucose-6-phosphate 1-dehydrogenase, sequence (P11413 whole entry): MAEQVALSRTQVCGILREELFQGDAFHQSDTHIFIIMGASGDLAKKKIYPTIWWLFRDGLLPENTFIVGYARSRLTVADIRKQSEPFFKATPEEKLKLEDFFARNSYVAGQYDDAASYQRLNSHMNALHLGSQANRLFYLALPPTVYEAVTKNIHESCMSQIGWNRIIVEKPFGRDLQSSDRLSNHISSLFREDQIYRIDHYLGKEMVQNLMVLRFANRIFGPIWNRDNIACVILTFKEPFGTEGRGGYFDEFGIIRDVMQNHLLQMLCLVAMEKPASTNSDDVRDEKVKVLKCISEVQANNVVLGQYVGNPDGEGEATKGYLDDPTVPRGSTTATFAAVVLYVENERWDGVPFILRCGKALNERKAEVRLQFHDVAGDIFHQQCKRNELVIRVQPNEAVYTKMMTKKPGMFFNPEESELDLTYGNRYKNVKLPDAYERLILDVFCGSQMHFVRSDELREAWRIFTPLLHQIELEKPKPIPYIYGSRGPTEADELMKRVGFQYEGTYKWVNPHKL
Albumin, sequence (P02769 whole entry): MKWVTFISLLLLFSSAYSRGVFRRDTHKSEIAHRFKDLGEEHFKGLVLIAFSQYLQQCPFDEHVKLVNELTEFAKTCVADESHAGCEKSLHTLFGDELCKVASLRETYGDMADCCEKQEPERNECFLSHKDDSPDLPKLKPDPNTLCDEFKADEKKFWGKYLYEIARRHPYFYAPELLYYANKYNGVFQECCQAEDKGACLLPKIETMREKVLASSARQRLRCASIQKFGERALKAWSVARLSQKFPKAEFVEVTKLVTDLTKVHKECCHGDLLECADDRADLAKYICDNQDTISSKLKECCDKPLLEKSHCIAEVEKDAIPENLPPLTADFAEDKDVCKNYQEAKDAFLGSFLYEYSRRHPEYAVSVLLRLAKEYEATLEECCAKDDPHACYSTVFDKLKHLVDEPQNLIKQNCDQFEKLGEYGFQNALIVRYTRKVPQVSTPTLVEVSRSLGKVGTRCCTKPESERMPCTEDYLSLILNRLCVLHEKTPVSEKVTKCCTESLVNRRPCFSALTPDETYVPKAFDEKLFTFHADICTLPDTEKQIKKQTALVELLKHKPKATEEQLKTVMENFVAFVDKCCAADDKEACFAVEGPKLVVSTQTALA
Cytochrome P450 3A4, sequence (P08684 whole entry): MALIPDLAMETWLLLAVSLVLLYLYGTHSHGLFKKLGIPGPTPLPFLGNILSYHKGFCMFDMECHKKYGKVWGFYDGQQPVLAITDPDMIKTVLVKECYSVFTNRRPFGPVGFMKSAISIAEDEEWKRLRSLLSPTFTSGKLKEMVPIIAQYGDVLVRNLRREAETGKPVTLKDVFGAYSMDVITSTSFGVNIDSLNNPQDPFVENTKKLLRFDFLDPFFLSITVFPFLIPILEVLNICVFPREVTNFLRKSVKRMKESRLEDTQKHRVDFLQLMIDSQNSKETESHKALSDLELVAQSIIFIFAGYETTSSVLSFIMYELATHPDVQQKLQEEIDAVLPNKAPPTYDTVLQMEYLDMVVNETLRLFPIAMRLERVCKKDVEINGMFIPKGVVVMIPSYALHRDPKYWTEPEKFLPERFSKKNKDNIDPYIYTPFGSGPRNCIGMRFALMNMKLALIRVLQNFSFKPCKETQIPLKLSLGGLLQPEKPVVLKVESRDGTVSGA
Cytochrome P450 2C9, sequence (P11712 whole entry): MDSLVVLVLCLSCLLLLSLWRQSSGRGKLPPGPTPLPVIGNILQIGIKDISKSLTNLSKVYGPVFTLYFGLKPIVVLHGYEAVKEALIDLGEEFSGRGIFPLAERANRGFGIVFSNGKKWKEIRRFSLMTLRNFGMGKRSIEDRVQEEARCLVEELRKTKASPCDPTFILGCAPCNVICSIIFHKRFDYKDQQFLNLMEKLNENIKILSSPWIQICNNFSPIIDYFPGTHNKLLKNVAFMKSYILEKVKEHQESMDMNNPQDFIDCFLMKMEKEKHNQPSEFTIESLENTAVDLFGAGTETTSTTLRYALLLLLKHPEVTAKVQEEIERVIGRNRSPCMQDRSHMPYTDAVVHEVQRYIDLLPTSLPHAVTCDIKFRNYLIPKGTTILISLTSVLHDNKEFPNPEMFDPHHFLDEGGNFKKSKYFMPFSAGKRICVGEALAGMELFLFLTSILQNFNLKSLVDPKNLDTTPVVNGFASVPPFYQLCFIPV
Disintegrin and metalloproteinase domain-containing protein 17, sequence (P78536 whole entry, the tested form may be a part): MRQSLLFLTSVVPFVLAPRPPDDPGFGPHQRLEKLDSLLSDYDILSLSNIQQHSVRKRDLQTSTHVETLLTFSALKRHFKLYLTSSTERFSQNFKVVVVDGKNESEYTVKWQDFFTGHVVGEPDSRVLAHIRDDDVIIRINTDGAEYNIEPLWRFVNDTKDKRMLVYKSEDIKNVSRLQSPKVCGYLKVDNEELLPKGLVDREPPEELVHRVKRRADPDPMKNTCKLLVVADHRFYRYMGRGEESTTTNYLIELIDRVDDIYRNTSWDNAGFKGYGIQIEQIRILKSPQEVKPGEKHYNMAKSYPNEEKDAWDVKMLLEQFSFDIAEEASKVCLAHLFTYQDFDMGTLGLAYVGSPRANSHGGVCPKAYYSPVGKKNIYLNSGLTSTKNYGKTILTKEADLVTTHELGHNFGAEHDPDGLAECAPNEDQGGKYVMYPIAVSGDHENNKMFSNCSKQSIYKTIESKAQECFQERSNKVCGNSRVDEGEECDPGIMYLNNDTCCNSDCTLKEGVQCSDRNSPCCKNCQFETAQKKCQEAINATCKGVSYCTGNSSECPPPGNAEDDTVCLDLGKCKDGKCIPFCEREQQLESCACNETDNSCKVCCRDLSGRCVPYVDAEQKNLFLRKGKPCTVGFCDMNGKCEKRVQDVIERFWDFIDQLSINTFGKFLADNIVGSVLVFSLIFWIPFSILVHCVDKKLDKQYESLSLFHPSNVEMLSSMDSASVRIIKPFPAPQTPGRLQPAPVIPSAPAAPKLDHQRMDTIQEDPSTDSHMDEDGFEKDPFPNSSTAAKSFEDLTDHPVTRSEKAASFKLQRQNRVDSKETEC
FAD-linked sulfhydryl oxidase ALR, sequence (P55789 whole entry): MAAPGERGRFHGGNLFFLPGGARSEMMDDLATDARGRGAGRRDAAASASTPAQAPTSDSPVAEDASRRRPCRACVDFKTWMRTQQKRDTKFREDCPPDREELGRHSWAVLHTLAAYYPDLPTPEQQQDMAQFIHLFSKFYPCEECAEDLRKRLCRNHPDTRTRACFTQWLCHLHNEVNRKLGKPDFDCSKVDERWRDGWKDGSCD
Luciferin 4-monooxygenase, sequence (P08659 whole entry): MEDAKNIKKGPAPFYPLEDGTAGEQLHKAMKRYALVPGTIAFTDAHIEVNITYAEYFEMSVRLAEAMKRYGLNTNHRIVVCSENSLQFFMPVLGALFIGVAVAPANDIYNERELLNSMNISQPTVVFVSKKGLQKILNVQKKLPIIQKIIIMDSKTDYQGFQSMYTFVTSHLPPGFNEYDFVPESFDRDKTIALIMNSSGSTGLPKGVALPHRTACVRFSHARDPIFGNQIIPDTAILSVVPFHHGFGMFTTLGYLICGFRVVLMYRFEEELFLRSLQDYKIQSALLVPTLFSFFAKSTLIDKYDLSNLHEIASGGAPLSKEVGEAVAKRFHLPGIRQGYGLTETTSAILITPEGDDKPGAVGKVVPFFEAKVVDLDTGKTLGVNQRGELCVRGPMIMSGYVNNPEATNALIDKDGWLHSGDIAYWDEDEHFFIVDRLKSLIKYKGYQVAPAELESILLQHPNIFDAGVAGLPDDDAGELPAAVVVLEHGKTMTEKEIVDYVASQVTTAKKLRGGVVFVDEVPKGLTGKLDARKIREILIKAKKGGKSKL
Genome polyprotein, sequence (P29990 2492-3391 limits assumed): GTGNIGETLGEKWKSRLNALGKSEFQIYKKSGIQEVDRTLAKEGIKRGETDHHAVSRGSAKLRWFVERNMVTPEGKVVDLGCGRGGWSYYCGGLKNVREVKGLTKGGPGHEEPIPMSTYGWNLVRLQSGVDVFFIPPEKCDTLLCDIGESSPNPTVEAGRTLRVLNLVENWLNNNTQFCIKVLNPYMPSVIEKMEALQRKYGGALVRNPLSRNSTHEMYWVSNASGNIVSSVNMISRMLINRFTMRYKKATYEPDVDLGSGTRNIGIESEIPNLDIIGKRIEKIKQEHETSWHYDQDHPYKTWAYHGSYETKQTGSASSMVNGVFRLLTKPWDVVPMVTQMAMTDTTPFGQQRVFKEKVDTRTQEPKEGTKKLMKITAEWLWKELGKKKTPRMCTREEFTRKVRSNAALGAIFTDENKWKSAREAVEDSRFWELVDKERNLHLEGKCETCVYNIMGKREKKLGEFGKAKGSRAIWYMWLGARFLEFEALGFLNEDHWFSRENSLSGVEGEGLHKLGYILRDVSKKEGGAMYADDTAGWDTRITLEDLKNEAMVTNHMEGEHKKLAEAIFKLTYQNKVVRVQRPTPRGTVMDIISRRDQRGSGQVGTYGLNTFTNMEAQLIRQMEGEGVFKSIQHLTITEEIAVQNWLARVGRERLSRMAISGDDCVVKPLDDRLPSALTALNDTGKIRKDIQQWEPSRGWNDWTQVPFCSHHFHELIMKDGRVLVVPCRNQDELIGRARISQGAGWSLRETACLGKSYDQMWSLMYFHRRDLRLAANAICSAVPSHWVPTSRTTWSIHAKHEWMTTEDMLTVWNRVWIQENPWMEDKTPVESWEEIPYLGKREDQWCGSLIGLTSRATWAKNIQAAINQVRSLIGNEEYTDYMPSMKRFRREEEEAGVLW

Q: Which results are given for `CN1CCN(c2ncc3nc(-c4ccc(F)cc4)c(=O)n(Cc4cccs4)c3n2)CC1`?
A: AC50 [1]: 31.6 µM (inconclusive); AC50 [2]: inconclusive; AC50 [3]: 0.0126 µM (inconclusive); AC50 [4]: 25.1 µM (inconclusive)

Q: With `C/C(=N\N=C(/N)SC1CC(=O)N(c2ccc(Br)cc2)C1=O)c1cccs1` (centres undefined) as the compound, how does the EC50 [5] read?
A: The EC50 was 6.72 µM (active).

Q: What about the EC50 [6] of the same compound?
A: The EC50 was 9.08 µM (active).

Q: And the IC50 [7]?
A: The IC50 was > 69.5 µM (inactive).

Q: And the EC50 [8]?
A: Its EC50 is 19.1 µM (active).

Q: With `CN1CC[C@@]2(C)c3cc(O)ccc3N(C)[C@@H]12` as the compound, how does the IC50 [9] read?
A: Its IC50 is 22.4 µM (active).

Q: What about the IC50 [10] of the same compound?
A: Its IC50 is 42.6 µM (inactive).

Q: Which results are given for `O=C(c1ccccc1)c1ccc2cc(O)ccc2c1`?
A: EC50 [11]: 7.74 µM (active); EC50 [12]: 0.752 µM (active); AC50 [13]: 9.25 µM (active)

Q: With `O=C(CCl)NNC(=O)c1c(O)c2ccccc2[nH]c1=O` as the compound, how does the IC50 [14] read?
A: The IC50 was > 94 µM (inactive).

Q: Which IC50 [10] does the source give for `NNC(=O)CN1C(c2ccccc2Br)=Nc2ccc(Br)cc2C1c1ccccc1` (centres undefined) here?
A: Its IC50 is 15.3 µM (active).

Q: What does the source list for `COc1cccc(NC(=O)Nc2nc(SC(C)(C)C)ns2)c1`?
A: EC50 [5]: 9.49 µM (active); CC50 [15]: 7.41 µM (active); EC50 [6]: 9.69 µM (active); EC50 [8]: > 50 µM (not active); CC50 [16]: 7.82 µM (active)

Q: Which results are given for `CCN(CC)c1ccc(NC(=O)c2ccccc2Br)cc1S(=O)(=O)Nc1ccccc1OC`?
A: IC50 [17]: 43.7 µM (active); IC50 [10]: > 80 µM (inactive)

Q: Which EC50 [18] does the source give for `Fc1cccc(/C=N/Nc2[nH]cnc3ncnc2-3)c1` here?
A: The EC50 was > 120 µM (not active).

Q: And the EC50 [19]?
A: Its EC50 is 40.8 µM (active).

Q: And the EC50 [20]?
A: Its EC50 is > 120 µM (not active).

Q: What about the AC50 [13] of the same compound?
A: The AC50 was 10.1 µM (active).

Q: Which CC50 [15] does the source give for `O=C1N(c2ccccc2C(F)(F)F)O[C@@]1(c1ccccc1)C1CCCCC1` here?
A: Its CC50 is > 25 µM (active).

Q: Which EC50 [5] does the source give for `COc1ccc(CC(=O)N/N=C/c2cc([N+](=O)[O-])cc(Br)c2O)cc1` here?
A: The EC50 was 3.53 µM (active).

Q: And the EC50 [6]?
A: Its EC50 is > 150 µM (not active).

Q: What about the EC50 [8] of the same compound?
A: The EC50 was 6.89 µM (active).

Q: What about the IC50 [14] of the same compound?
A: Its IC50 is > 94.1 µM (inactive).

Q: For `Cc1no[n+]([O-])c1COc1cccc(/C=N/Nc2nncn2N)c1`, which IC50 [10] is on record?
A: The IC50 was 58.7 µM (inactive).

Q: Which IC50 [10] does the source give for `CC1(OC(=O)C2CCCC2)C(=O)C=C2C=C(c3ccsc3)N(CCc3c[nH]c4ccccc34)C=C2C1=O` (centres undefined) here?
A: The IC50 was 49.6 µM (inactive).

Q: Which IC50 [21] does the source give for `O=S(=O)(c1ccc(-c2csc(-c3cccnc3)n2)cc1)N1CCCC1` here?
A: The IC50 was 1.62 µM (active).

Q: What about the AC50 [22] of the same compound?
A: The AC50 was 0.268 µM (active).

Q: Which results are given for `CCCCn1c(SCC(=O)NC(C)(C)C)nnc1-c1ccco1`?
A: AC50 [23]: 12.6 µM (inconclusive); AC50 [2]: inconclusive; AC50 [3]: 0.0398 µM (inconclusive); AC50 [4]: 0.316 µM (inconclusive)

Q: Which AC50 [24] does the source give for `COc1ccc2nc(NC(=O)c3ccccc3F)sc2c1` here?
A: Its AC50 is 27.2 µM (active).

Q: And the AC50 [25]?
A: The AC50 was > 52 µM (inactive).

Q: What about the AC50 [26] of the same compound?
A: Its AC50 is > 52 µM (inactive).

Q: What about the AC50 [27] of the same compound?
A: The AC50 was 19.9 µM (active).

Q: Which IC50 [14] does the source give for `Cc1noc(C)c1COc1ccc(C(=O)NNC(=O)c2ccccc2O)cc1` here?
A: Its IC50 is > 94.1 µM (inactive).
